Test system: HCI-024 (organoid from a breast cancer xenograft)
Assay: CTG-3D luminescence at 96 h relative to day-0 seeding control (ratio to day 0); higher = more growth / less cytotoxicity; PDxO 3D drug screen, 96 h, CTG-3D normalised to day-0 seeding control.
Settings: 0.005 µM; days in culture: 105

| SMILES | CTG-3D luminescence at 96 h |
| --- | --- |
| CC(C)n1nc(-c2ccc3oc(N)nc3c2)c2c(N)ncnc21 [sapanisertib] | 1.16 |
| Cc1nc(-c2cn3c(n2)-c2ccc(-c4cnn(C(C)(C)C(N)=O)c4)cc2OCC3)n(C(C)C)n1 [taselisib] | 1.54 |
| Cc1cc(Nc2ncnc3ccc(NC4=NC(C)(C)CO4)cc23)ccc1Oc1ccn2ncnc2c1 [tucatinib] | 1.37 |
| CS(=O)(=O)c1ccc(C(=O)Nc2ccc(Cl)c(-c3ccccn3)c2)c(Cl)c1 [vismodegib] | 1.53 |
| CNC(=O)c1cccc(-c2ccc3c(N4CCOC[C@@H]4C)nc(N4CCOC[C@@H]4C)nc3n2)c1 [vistusertib] | 1.36 |

Same assay, conditions: 0.005 µM; days in culture: 122

| SMILES | CTG-3D luminescence at 96 h |
| --- | --- |
| CC(C)n1nc(-c2ccc3oc(N)nc3c2)c2c(N)ncnc21 [sapanisertib] | 1.86 |
| Cc1nc(-c2cn3c(n2)-c2ccc(-c4cnn(C(C)(C)C(N)=O)c4)cc2OCC3)n(C(C)C)n1 [taselisib] | 1.79 |
| Cc1cc(Nc2ncnc3ccc(NC4=NC(C)(C)CO4)cc23)ccc1Oc1ccn2ncnc2c1 [tucatinib] | 2.36 |
| CS(=O)(=O)c1ccc(C(=O)Nc2ccc(Cl)c(-c3ccccn3)c2)c(Cl)c1 [vismodegib] | 2.14 |
| CNC(=O)c1cccc(-c2ccc3c(N4CCOC[C@@H]4C)nc(N4CCOC[C@@H]4C)nc3n2)c1 [vistusertib] | 2.05 |

Same assay, conditions: 0.005 µM; days in culture: 163

| SMILES | CTG-3D luminescence at 96 h |
| --- | --- |
| CC(C)n1nc(-c2ccc3oc(N)nc3c2)c2c(N)ncnc21 [sapanisertib] | 1.59 |
| Cc1nc(-c2cn3c(n2)-c2ccc(-c4cnn(C(C)(C)C(N)=O)c4)cc2OCC3)n(C(C)C)n1 [taselisib] | 1.7 |
| Cc1cc(Nc2ncnc3ccc(NC4=NC(C)(C)CO4)cc23)ccc1Oc1ccn2ncnc2c1 [tucatinib] | 1.49 |
| CS(=O)(=O)c1ccc(C(=O)Nc2ccc(Cl)c(-c3ccccn3)c2)c(Cl)c1 [vismodegib] | 1.87 |
| CNC(=O)c1cccc(-c2ccc3c(N4CCOC[C@@H]4C)nc(N4CCOC[C@@H]4C)nc3n2)c1 [vistusertib] | 1.73 |

Same assay, conditions: 0.1 µM; days in culture: 105

| SMILES | CTG-3D luminescence at 96 h |
| --- | --- |
| CC(C)n1nc(-c2ccc3oc(N)nc3c2)c2c(N)ncnc21 [sapanisertib] | 0.885 |
| Cc1nc(-c2cn3c(n2)-c2ccc(-c4cnn(C(C)(C)C(N)=O)c4)cc2OCC3)n(C(C)C)n1 [taselisib] | 1.77 |
| Cc1cc(Nc2ncnc3ccc(NC4=NC(C)(C)CO4)cc23)ccc1Oc1ccn2ncnc2c1 [tucatinib] | 1.61 |
| CS(=O)(=O)c1ccc(C(=O)Nc2ccc(Cl)c(-c3ccccn3)c2)c(Cl)c1 [vismodegib] | 1.77 |
| CNC(=O)c1cccc(-c2ccc3c(N4CCOC[C@@H]4C)nc(N4CCOC[C@@H]4C)nc3n2)c1 [vistusertib] | 1.28 |

Same assay, conditions: 0.1 µM; days in culture: 122

| SMILES | CTG-3D luminescence at 96 h |
| --- | --- |
| CC(C)n1nc(-c2ccc3oc(N)nc3c2)c2c(N)ncnc21 [sapanisertib] | 0.922 |
| Cc1nc(-c2cn3c(n2)-c2ccc(-c4cnn(C(C)(C)C(N)=O)c4)cc2OCC3)n(C(C)C)n1 [taselisib] | 1.88 |
| Cc1cc(Nc2ncnc3ccc(NC4=NC(C)(C)CO4)cc23)ccc1Oc1ccn2ncnc2c1 [tucatinib] | 1.93 |
| CS(=O)(=O)c1ccc(C(=O)Nc2ccc(Cl)c(-c3ccccn3)c2)c(Cl)c1 [vismodegib] | 2.07 |
| CNC(=O)c1cccc(-c2ccc3c(N4CCOC[C@@H]4C)nc(N4CCOC[C@@H]4C)nc3n2)c1 [vistusertib] | 1.84 |

Same assay, conditions: 0.1 µM; days in culture: 163

| SMILES | CTG-3D luminescence at 96 h |
| --- | --- |
| CC(C)n1nc(-c2ccc3oc(N)nc3c2)c2c(N)ncnc21 [sapanisertib] | 1.61 |
| Cc1nc(-c2cn3c(n2)-c2ccc(-c4cnn(C(C)(C)C(N)=O)c4)cc2OCC3)n(C(C)C)n1 [taselisib] | 2.36 |
| Cc1cc(Nc2ncnc3ccc(NC4=NC(C)(C)CO4)cc23)ccc1Oc1ccn2ncnc2c1 [tucatinib] | 2.11 |
| CS(=O)(=O)c1ccc(C(=O)Nc2ccc(Cl)c(-c3ccccn3)c2)c(Cl)c1 [vismodegib] | 2.29 |
| CNC(=O)c1cccc(-c2ccc3c(N4CCOC[C@@H]4C)nc(N4CCOC[C@@H]4C)nc3n2)c1 [vistusertib] | 2.31 |

Same assay, conditions: 1 µM; days in culture: 105

| SMILES | CTG-3D luminescence at 96 h |
| --- | --- |
| CC(C)n1nc(-c2ccc3oc(N)nc3c2)c2c(N)ncnc21 [sapanisertib] | 0.716 |
| Cc1nc(-c2cn3c(n2)-c2ccc(-c4cnn(C(C)(C)C(N)=O)c4)cc2OCC3)n(C(C)C)n1 [taselisib] | 1.34 |
| Cc1cc(Nc2ncnc3ccc(NC4=NC(C)(C)CO4)cc23)ccc1Oc1ccn2ncnc2c1 [tucatinib] | 1.49 |
| CS(=O)(=O)c1ccc(C(=O)Nc2ccc(Cl)c(-c3ccccn3)c2)c(Cl)c1 [vismodegib] | 1.64 |
| CNC(=O)c1cccc(-c2ccc3c(N4CCOC[C@@H]4C)nc(N4CCOC[C@@H]4C)nc3n2)c1 [vistusertib] | 0.65 |

Same assay, conditions: 1 µM; days in culture: 122

| SMILES | CTG-3D luminescence at 96 h |
| --- | --- |
| CC(C)n1nc(-c2ccc3oc(N)nc3c2)c2c(N)ncnc21 [sapanisertib] | 0.842 |
| Cc1nc(-c2cn3c(n2)-c2ccc(-c4cnn(C(C)(C)C(N)=O)c4)cc2OCC3)n(C(C)C)n1 [taselisib] | 1.6 |
| Cc1cc(Nc2ncnc3ccc(NC4=NC(C)(C)CO4)cc23)ccc1Oc1ccn2ncnc2c1 [tucatinib] | 1.73 |
| CS(=O)(=O)c1ccc(C(=O)Nc2ccc(Cl)c(-c3ccccn3)c2)c(Cl)c1 [vismodegib] | 2.27 |
| CNC(=O)c1cccc(-c2ccc3c(N4CCOC[C@@H]4C)nc(N4CCOC[C@@H]4C)nc3n2)c1 [vistusertib] | 0.987 |

Same assay, conditions: 1 µM; days in culture: 163

| SMILES | CTG-3D luminescence at 96 h |
| --- | --- |
| CC(C)n1nc(-c2ccc3oc(N)nc3c2)c2c(N)ncnc21 [sapanisertib] | 1.1 |
| Cc1nc(-c2cn3c(n2)-c2ccc(-c4cnn(C(C)(C)C(N)=O)c4)cc2OCC3)n(C(C)C)n1 [taselisib] | 2.06 |
| Cc1cc(Nc2ncnc3ccc(NC4=NC(C)(C)CO4)cc23)ccc1Oc1ccn2ncnc2c1 [tucatinib] | 1.77 |
| CS(=O)(=O)c1ccc(C(=O)Nc2ccc(Cl)c(-c3ccccn3)c2)c(Cl)c1 [vismodegib] | 2.2 |
| CNC(=O)c1cccc(-c2ccc3c(N4CCOC[C@@H]4C)nc(N4CCOC[C@@H]4C)nc3n2)c1 [vistusertib] | 1.19 |

Same assay, conditions: 10 µM; days in culture: 105

| SMILES | CTG-3D luminescence at 96 h |
| --- | --- |
| CC(C)n1nc(-c2ccc3oc(N)nc3c2)c2c(N)ncnc21 [sapanisertib] | 0.64 |
| Cc1nc(-c2cn3c(n2)-c2ccc(-c4cnn(C(C)(C)C(N)=O)c4)cc2OCC3)n(C(C)C)n1 [taselisib] | 0.981 |
| Cc1cc(Nc2ncnc3ccc(NC4=NC(C)(C)CO4)cc23)ccc1Oc1ccn2ncnc2c1 [tucatinib] | 1.54 |
| CS(=O)(=O)c1ccc(C(=O)Nc2ccc(Cl)c(-c3ccccn3)c2)c(Cl)c1 [vismodegib] | 1.97 |
| CNC(=O)c1cccc(-c2ccc3c(N4CCOC[C@@H]4C)nc(N4CCOC[C@@H]4C)nc3n2)c1 [vistusertib] | 0.778 |

Same assay, conditions: 10 µM; days in culture: 122

| SMILES | CTG-3D luminescence at 96 h |
| --- | --- |
| CC(C)n1nc(-c2ccc3oc(N)nc3c2)c2c(N)ncnc21 [sapanisertib] | 0.81 |
| Cc1nc(-c2cn3c(n2)-c2ccc(-c4cnn(C(C)(C)C(N)=O)c4)cc2OCC3)n(C(C)C)n1 [taselisib] | 1.81 |
| Cc1cc(Nc2ncnc3ccc(NC4=NC(C)(C)CO4)cc23)ccc1Oc1ccn2ncnc2c1 [tucatinib] | 1.83 |
| CS(=O)(=O)c1ccc(C(=O)Nc2ccc(Cl)c(-c3ccccn3)c2)c(Cl)c1 [vismodegib] | 2.75 |
| CNC(=O)c1cccc(-c2ccc3c(N4CCOC[C@@H]4C)nc(N4CCOC[C@@H]4C)nc3n2)c1 [vistusertib] | 1.07 |

Same assay, conditions: 10 µM; days in culture: 163

| SMILES | CTG-3D luminescence at 96 h |
| --- | --- |
| CC(C)n1nc(-c2ccc3oc(N)nc3c2)c2c(N)ncnc21 [sapanisertib] | 0.902 |
| Cc1nc(-c2cn3c(n2)-c2ccc(-c4cnn(C(C)(C)C(N)=O)c4)cc2OCC3)n(C(C)C)n1 [taselisib] | 1.62 |
| Cc1cc(Nc2ncnc3ccc(NC4=NC(C)(C)CO4)cc23)ccc1Oc1ccn2ncnc2c1 [tucatinib] | 1.88 |
| CS(=O)(=O)c1ccc(C(=O)Nc2ccc(Cl)c(-c3ccccn3)c2)c(Cl)c1 [vismodegib] | 2.36 |
| CNC(=O)c1cccc(-c2ccc3c(N4CCOC[C@@H]4C)nc(N4CCOC[C@@H]4C)nc3n2)c1 [vistusertib] | 0.949 |

Same assay, conditions: 100 µM; days in culture: 105

| SMILES | CTG-3D luminescence at 96 h |
| --- | --- |
| CC(C)n1nc(-c2ccc3oc(N)nc3c2)c2c(N)ncnc21 [sapanisertib] | 0.243 |
| Cc1nc(-c2cn3c(n2)-c2ccc(-c4cnn(C(C)(C)C(N)=O)c4)cc2OCC3)n(C(C)C)n1 [taselisib] | 0.403 |
| Cc1cc(Nc2ncnc3ccc(NC4=NC(C)(C)CO4)cc23)ccc1Oc1ccn2ncnc2c1 [tucatinib] | 0.0289 |
| CS(=O)(=O)c1ccc(C(=O)Nc2ccc(Cl)c(-c3ccccn3)c2)c(Cl)c1 [vismodegib] | 1.09 |
| CNC(=O)c1cccc(-c2ccc3c(N4CCOC[C@@H]4C)nc(N4CCOC[C@@H]4C)nc3n2)c1 [vistusertib] | 0.554 |

Same assay, conditions: 100 µM; days in culture: 122

| SMILES | CTG-3D luminescence at 96 h |
| --- | --- |
| CC(C)n1nc(-c2ccc3oc(N)nc3c2)c2c(N)ncnc21 [sapanisertib] | 0.3 |
| Cc1nc(-c2cn3c(n2)-c2ccc(-c4cnn(C(C)(C)C(N)=O)c4)cc2OCC3)n(C(C)C)n1 [taselisib] | 0.258 |
| Cc1cc(Nc2ncnc3ccc(NC4=NC(C)(C)CO4)cc23)ccc1Oc1ccn2ncnc2c1 [tucatinib] | 0.0421 |
| CS(=O)(=O)c1ccc(C(=O)Nc2ccc(Cl)c(-c3ccccn3)c2)c(Cl)c1 [vismodegib] | 1.23 |
| CNC(=O)c1cccc(-c2ccc3c(N4CCOC[C@@H]4C)nc(N4CCOC[C@@H]4C)nc3n2)c1 [vistusertib] | 0.813 |

Same assay, conditions: 100 µM; days in culture: 163

| SMILES | CTG-3D luminescence at 96 h |
| --- | --- |
| CC(C)n1nc(-c2ccc3oc(N)nc3c2)c2c(N)ncnc21 [sapanisertib] | 0.363 |
| Cc1nc(-c2cn3c(n2)-c2ccc(-c4cnn(C(C)(C)C(N)=O)c4)cc2OCC3)n(C(C)C)n1 [taselisib] | 0.316 |
| Cc1cc(Nc2ncnc3ccc(NC4=NC(C)(C)CO4)cc23)ccc1Oc1ccn2ncnc2c1 [tucatinib] | 0.0384 |
| CS(=O)(=O)c1ccc(C(=O)Nc2ccc(Cl)c(-c3ccccn3)c2)c(Cl)c1 [vismodegib] | 1.4 |
| CNC(=O)c1cccc(-c2ccc3c(N4CCOC[C@@H]4C)nc(N4CCOC[C@@H]4C)nc3n2)c1 [vistusertib] | 0.662 |

Same assay, conditions: 625 fM; days in culture: 105

| SMILES | CTG-3D luminescence at 96 h |
| --- | --- |
| CC(C)n1nc(-c2ccc3oc(N)nc3c2)c2c(N)ncnc21 [sapanisertib] | 1.88 |
| Cc1nc(-c2cn3c(n2)-c2ccc(-c4cnn(C(C)(C)C(N)=O)c4)cc2OCC3)n(C(C)C)n1 [taselisib] | 1.9 |
| Cc1cc(Nc2ncnc3ccc(NC4=NC(C)(C)CO4)cc23)ccc1Oc1ccn2ncnc2c1 [tucatinib] | 2.2 |
| CS(=O)(=O)c1ccc(C(=O)Nc2ccc(Cl)c(-c3ccccn3)c2)c(Cl)c1 [vismodegib] | 1.64 |
| CNC(=O)c1cccc(-c2ccc3c(N4CCOC[C@@H]4C)nc(N4CCOC[C@@H]4C)nc3n2)c1 [vistusertib] | 1.79 |

Same assay, conditions: 625 fM; days in culture: 122

| SMILES | CTG-3D luminescence at 96 h |
| --- | --- |
| CC(C)n1nc(-c2ccc3oc(N)nc3c2)c2c(N)ncnc21 [sapanisertib] | 2.57 |
| Cc1nc(-c2cn3c(n2)-c2ccc(-c4cnn(C(C)(C)C(N)=O)c4)cc2OCC3)n(C(C)C)n1 [taselisib] | 2.63 |
| Cc1cc(Nc2ncnc3ccc(NC4=NC(C)(C)CO4)cc23)ccc1Oc1ccn2ncnc2c1 [tucatinib] | 2.27 |
| CS(=O)(=O)c1ccc(C(=O)Nc2ccc(Cl)c(-c3ccccn3)c2)c(Cl)c1 [vismodegib] | 2.04 |
| CNC(=O)c1cccc(-c2ccc3c(N4CCOC[C@@H]4C)nc(N4CCOC[C@@H]4C)nc3n2)c1 [vistusertib] | 2.77 |

Same assay, conditions: 625 fM; days in culture: 163

| SMILES | CTG-3D luminescence at 96 h |
| --- | --- |
| CC(C)n1nc(-c2ccc3oc(N)nc3c2)c2c(N)ncnc21 [sapanisertib] | 1.85 |
| Cc1nc(-c2cn3c(n2)-c2ccc(-c4cnn(C(C)(C)C(N)=O)c4)cc2OCC3)n(C(C)C)n1 [taselisib] | 2 |
| Cc1cc(Nc2ncnc3ccc(NC4=NC(C)(C)CO4)cc23)ccc1Oc1ccn2ncnc2c1 [tucatinib] | 2.18 |
| CS(=O)(=O)c1ccc(C(=O)Nc2ccc(Cl)c(-c3ccccn3)c2)c(Cl)c1 [vismodegib] | 2.01 |
| CNC(=O)c1cccc(-c2ccc3c(N4CCOC[C@@H]4C)nc(N4CCOC[C@@H]4C)nc3n2)c1 [vistusertib] | 1.95 |
